From US7368457B2, “Bridged N-arylsulfonylpiperidines as gamma-secretase inhibitors” (Schering Corporation, priority 2003, dated 2008)

Biological target: T1, gamma secretase (Homo sapiens, UniProt P49768)
T1 construct: endogenous in cells; host or cells: Membranes of 293 T-REx cells, clone pTRE.15; The enzyme is endogenous; only the substrate SPC99-Lon is transfected
Experiment: Gamma secretase activity in membranes of 293 cells expressing C99 (SPC99-Lon), Aβ 40 / Aβ 42 ECL immunoassay
Format: biochemical
Conditions: not given
Description: Reagents. Antibodies WO2, G2-10, and G2-11 were obtained from Dr. Konrad Beyreuther (University of Heidelberg, Heidelberg, Germany). WO2 recognizes residues 5-8 of Aβ peptide, while G2-10 and G2-11 recognize the specific C-terminal structure of Aβ 40 and Aβ 42, respectively. Biotin-4G8 was purchased from Senetec (St. Louis, Mo.). All tissue culture reagents used in this work were from Life Technologies, Inc., unless otherwise specified. Pepstatin A was purchased from Roche Molecular Biochemicals; DFK167 was from Enzyme Systems Products (Livermore, Calif.).
cDNA Constructs, Tissue Culture, and Cell Line Construction. […] Upon insertion into the membrane, the 17 amino acid signal peptide is processed, leaving an additional leucine at the N-terminus of Aβ SPC99-Ion was cloned into the pcDNA4/TO vector (Invitrogen) and transfected into 293 cells stably transfected with pcDNA6/TR, which is provided in the T-REx system (Invitrogen). The transfected cells were selected in Dulbecco's modified Eagle's media (DMEM) supplemented with 10% fetal bovine serum, 100 units/mL penicillin, 100 µg/mL streptomycin, 250 µg/mL zeocin, and 5 µg/mL blasticidin (Invitrogen). Colonies were screened for Aβ production by inducing C99 expression with […] tetracycline for 16-20 h and analyzing conditioned media with a sandwich immunoassay (see below). One of the clones, designated as pTRE.15, was used in these studies.
Membrane Preparation. C99 expression in cells was induced with […] tetracycline for 20 h. The cells were pretreated with […] 12-myristate 13-acetate (PMA) and […] brefeldin A (BFA) for 5-6 h at 37 C before harvesting. The cells were washed 3 times with cold phosphate-buffered saline (PBS) and harvested in buffer A containing 20 mM Hepes (pH 7.5), 250 mM sucrose, 50 mM KCl, 2 mM EDTA, 2 mM EGTA, and Complete protease inhibitor tablets (Roche Molecular Biochemicals). The cell pellets were flash-frozen in liquid nitrogen and stored at −70 C before use.
To make membranes, the cells were resuspended in buffer A and lysed in a nitrogen bomb at 600 psi. The cell lysate was centrifuged at 1500 g for 10 min to remove nuclei and large cell debris. The supernatant was centrifuged at 100000 g for 1 h. The membrane pellet was resuspended in buffer A plus 0.5 M NaCl, and the membranes were collected by centrifugation at 200000 g for 1 h. The salt-washed membrane pellet was washed again in buffer A and centrifuged at 100000 g for 1 h. The final membrane pellet was resuspended in a small volume of buffer A using a Teflon-glass homogenizer. The protein concentration was determined, and membrane aliquots were flash-frozen in liquid nitrogen and stored at −70° C.
γ-Secretase Reaction and Aβ Analysis. To measure γ-secretase activity, membranes were incubated at 37° C. for 1 h in 50 μL of buffer containing 20 mM Hepes (pH 7.0) and 2 mM EDTA. At the end of the incubation, Aβ 40 and Aβ 42 were measured using an electrochemiluminescence (ECL)-based immunoassay. Aβ 40 was identified with antibody pairs TAG-G2-10 and biotin-WO2, while Aβ 42 was identified with TAG-G2-11 and biotin-4G8. The ECL signal was measured using an ECL-M8 instrument (IGEN International, Inc.) according to the manufacturer's instructions. The data presented were the means of the duplicate or triplicate measurements in each experiment.

Question: For O=C(O[C@@H]1CCC2CCCC1N2S(=O)(=O)c1ccc(Cl)cc1)N1CCC(N2CCCCC2)CC1 (stereo partly shown) [Example 15], which IC50 is on record?
Answer: 1000 to 10000 nM

Question: With O=C(O[C@H]1CCC2CCCC1N2S(=O)(=O)c1ccc(Cl)cc1)N1CCC(N2CCCCC2)CC1 (stereo partly shown) [Example 16] as the compound, how does the IC50 read?
Answer: ~16 nM

Same assay, conditions: gamma secretase membrane assay; ranges given as 'about 0.1 to about 1.0 μM' and 'about 1 to about 10 μM'; read-out: IC50

Question: Which IC50 does the source give for O=C(O[C@H]1CCC2CCCC1N2S(=O)(=O)c1ccc(Cl)cc1)N1CCN(CCO)CC1 (stereo partly shown) [Example 14] here?
Answer: 100 to 1000 nM

Question: With O=C(O[C@H]1CCC2CCCC1N2S(=O)(=O)c1ccc(Cl)cc1)N1CCN(CC2CC2)CC1 (stereo partly shown) [Example 17] as the compound, how does the IC50 read?
Answer: 100 to 1000 nM

Question: How did the IC50 turn out when CC(C)N1CCN(C(=O)O[C@H]2CCC3CCCC2N3S(=O)(=O)c2ccc(Cl)cc2)CC1 (stereo partly shown) [Example 21] was run?
Answer: 100 to 1000 nM

Question: With O=C(O[C@H]1CCC2CCCC1N2S(=O)(=O)c1ccc(Cl)cc1)N1CCN(CCCO)CC1 (stereo partly shown) [Example 22] as the compound, how does the IC50 read?
Answer: 100 to 1000 nM

Question: Which IC50 does the source give for O=C(O[C@H]1CCC2CCCC1N2S(=O)(=O)c1ccc(Cl)cc1)N1CCN(c2ccccc2)CC1 (stereo partly shown) [Example 23] here?
Answer: 100 to 1000 nM

Question: O=C(O[C@H]1CCC2CCCC1N2S(=O)(=O)c1ccc(Cl)cc1)N1CCC(O)(c2ccc(Cl)cc2)CC1 (stereo partly shown) [Example 24] was tested. Which IC50 did it give?
Answer: 100 to 1000 nM

Question: CCN(CC)C(=O)C1CCCN(C(=O)O[C@H]2CCC3CCCC2N3S(=O)(=O)c2ccc(Cl)cc2)C1 (stereo partly shown) [Example 25] was tested. Which IC50 did it give?
Answer: 100 to 1000 nM

Question: Which IC50 does the source give for CN1CCN(C(=O)O[C@H]2CCC3CCCC2N3S(=O)(=O)c2ccc(Cl)cc2)CC1 (stereo partly shown) [Example 26] here?
Answer: 100 to 1000 nM

Question: How did the IC50 turn out when COC(=O)C1CCN(C(=O)O[C@H]2CCC3CCCC2N3S(=O)(=O)c2ccc(Cl)cc2)CC1 (stereo partly shown) [Example 27] was run?
Answer: 100 to 1000 nM

Question: With O=C(O[C@H]1CCC2CCCC1N2S(=O)(=O)c1ccc(Cl)cc1)N1CCC[C@H]1CO (stereo partly shown) [Example 28] as the compound, how does the IC50 read?
Answer: 100 to 1000 nM

Question: Which IC50 does the source give for CCN(Cc1ccncc1)C(=O)O[C@H]1CCC2CCCC1N2S(=O)(=O)c1ccc(Cl)cc1 (stereo partly shown) [Example 29] here?
Answer: 100 to 1000 nM

Question: How did the IC50 turn out when O=C(O[C@@H]1C=CC2CCCC1N2S(=O)(=O)c1ccc(Cl)cc1)N1CCC(N2CCCCC2)CC1 (stereo partly shown) [Example 34] was run?
Answer: 100 to 1000 nM

Question: How did the IC50 turn out when O=C(OC1CC2CCC1N2S(=O)(=O)c1ccc(Cl)cc1)N1CCC(N2CCCCC2)CC1 (stereo not shown) [Example 35] was run?
Answer: 1000 to 10000 nM

Question: With O=C(OC1C[C@H]2CCC1N2S(=O)(=O)c1ccc(Cl)cc1)N1CCN(C2CCCCC2)CC1 (stereo partly shown) [Example 36] as the compound, how does the IC50 read?
Answer: 1000 to 10000 nM

Question: CCN1CCN(C(=O)OC2C[C@H]3CCC2N3S(=O)(=O)c2ccc(Cl)cc2)CC1 (stereo partly shown) [Example 37] was tested. Which IC50 did it give?
Answer: 1000 to 10000 nM

Question: Which IC50 does the source give for CC(C)N1CCN(C(=O)OC2C[C@H]3CCC2N3S(=O)(=O)c2ccc(Cl)cc2)CC1 (stereo partly shown) [Example 40] here?
Answer: 1000 to 10000 nM

Question: How did the IC50 turn out when O=C(O[C@H]1CCC2CCC1N2S(=O)(=O)c1ccc(Cl)cc1)N1CCC(N2CCCCC2)CC1 (stereo partly shown) [Example 43] was run?
Answer: 100 to 1000 nM
